Results reported in article PMC8151276, “An Integrated Approach toward NanoBRET Tracers for Analysis of GPCR Ligand Engagement” (Molecules, 2021).

What was measured:
CCR4 = biological target: T1, CCR4 (Homo sapiens, UniProt P51679); test: NanoBRET screen HiBiT-CCR4 in HEK293; assay type: binding
T1 construct: purchased Promega (in-house HiBiT-GPCR construct library, NanoBRET)
T1 sequence (P51679 1-360): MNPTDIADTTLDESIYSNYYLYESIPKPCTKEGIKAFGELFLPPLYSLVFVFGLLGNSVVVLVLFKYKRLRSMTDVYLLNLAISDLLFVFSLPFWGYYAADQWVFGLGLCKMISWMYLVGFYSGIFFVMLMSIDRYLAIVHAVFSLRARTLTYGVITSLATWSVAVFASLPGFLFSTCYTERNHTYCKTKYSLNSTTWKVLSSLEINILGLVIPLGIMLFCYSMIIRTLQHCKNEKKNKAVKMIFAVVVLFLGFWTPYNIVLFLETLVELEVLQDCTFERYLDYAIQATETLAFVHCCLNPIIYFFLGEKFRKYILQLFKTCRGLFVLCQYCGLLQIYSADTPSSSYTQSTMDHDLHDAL
Protocol: (§1) Each tracer candidate was screened across the entire library of HiBiT-GPCR constructs using NanoBRET as the detection modality. As depicted in Figure 4A, the specificity of interactions was evaluated through decrease in BRET due to competitive displacement of a bound tracer by excess parental compound. Each tracer was analyzed for binding to each HiBiT-GPCR fusion in the absence and in the presence of competing parental compound. Briefly, HEK293 cells were transfected with HiBiT-GPCR constructs diluted into promoterless DNA to reduce expression and maximize translocation to the cell surface. Each tracer candidate was then screened at concentrations of 1 μM and 0.1 μM across cells expressing these fusions. Cells were treated for 1.5 h with tracer either alone or in the presence of 20 μM competing parental compound (i.e., control). BRET was measured upon addition of purified LgBiT and subsequent complementation with HiBiT genetically fused to a GPCR. The specificity of interactions was assessed through a decrease in BRET signal due to competitive displacement of the bound tracer. To further gauge the robustness of these interactions, the fold response over the control (i.e., BRETtracer/BRETcontrol) was calculated. We chose a 1.5-fold response, which translates to ≥7-fold signal over noise as the minimal threshold required to score an interaction as positive. […]. Below we highlight the screening results obtained for our exemplary fluorescent tracers based on Clozapine, Amitriptyline and AZD1283.
(§2) HiBiT-GPCR DNA constructs were diluted in 10 mM Tris pH 8 to a final concentration of 0.01 μg/μL, arrayed in 96-well plates and stored at −20 °C. For transfection, HEK293 cells were suspended in Opti-MEM (without phenol red) supplemented with 2% fetal bovine serum (Seradigm) and 100 units/mL penicillin–streptomycin (Gibco) at a final concentration of 220,000 cells/mL and dispensed into white 96-well plates at 90 μL/well. Subsequent transfections and screens were carried using an Agilent Bravo Automated Liquid Handling Platform. First, the 96-well HiBiT DNA arrays were diluted 25-fold in Opti-MEM (without serum or phenol red) to a final concentration of 0.0004 μg/μL and 20 μL of the diluted DNAs were transferred into new 96-well plates. Next, promoterless carrier DNA (1 μg/μL) was diluted 25-fold (0.04 μg/μL) and then dispensed into the diluted arrays at 20 μL/well. Following brief mixing, Viafect transfection reagent (Promega) diluted 16-fold into Opti-MEM was dispensed into the plates at 40 μL/well. After mixing by pipetting, plates were incubated for 10 min on the pipetting station deck. The DNA-transfection reagent complexes were then added to plates containing cells. To facilitate the screen, 10 μL of DNA-transfection reagent complexes were added in duplicates to the top 4 and bottom 4 rows, resulting in two identical 48-well arrays per plate. Plates with transfected cells were incubated for 18–20 h at 37 °C/5% CO2. A screen of each tracer across the entire library using two different concentrations requires duplicate plates of transfected cells. Depending on the number of tracers being screened, transfections can be scaled up using the same ratios. The next day, for each tracer, four 20× screening solutions in tracer dilution buffer (Promega) were prepared: two duplicates at final concentration of 20 μM and two duplicates at a final concentration of 2 μM. A competing unmodified compound was added to one of each duplicate at a final concentration of 400 μM. The four resulting solutions were diluted 4-fold in Opti-MEM without serum or phenol red to generate 5× solutions (5 µM and 0.5 µM tracer +/− 100 μM competing compound). To screen the library, a BioTek MultiFlo FX liquid dispenser was used to dispense 22.5 µL of tracer solution to the top 4 rows and 22.5 µL tracer + competing compound solution to the 4 bottom rows. Plates were briefly mixed on an orbital shaker and incubated for 1.5 h at room temperature. […]

GNRHR = biological target: T2, GNRHR (Homo sapiens, UniProt P30968); test: NanoBRET screen HiBiT-GNRHR in HEK293; assay type: binding
T2 construct: purchased Promega (in-house HiBiT-GPCR construct library, NanoBRET)
T2 sequence (P30968 1-328): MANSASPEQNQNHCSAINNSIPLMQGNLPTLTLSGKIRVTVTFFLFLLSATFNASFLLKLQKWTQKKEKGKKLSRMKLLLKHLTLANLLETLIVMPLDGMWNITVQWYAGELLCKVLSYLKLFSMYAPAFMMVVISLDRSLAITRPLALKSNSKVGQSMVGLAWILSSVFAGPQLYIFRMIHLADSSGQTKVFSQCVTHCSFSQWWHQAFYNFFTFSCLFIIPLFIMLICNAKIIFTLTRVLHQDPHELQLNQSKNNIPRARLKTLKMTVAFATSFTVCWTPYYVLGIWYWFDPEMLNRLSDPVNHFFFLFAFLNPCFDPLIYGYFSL
Protocol: as §1, §2

O=C(CCOCCOCCOCCOCCNC(=O)CCc1ccc2n1[B-](F)(F)[N+]1=C(c3ccc[nH]3)C=CC1=C2)NCCCN1CCN(C2=Nc3ccccc3Oc3ccc(Cl)cc32)CC1 [Loxapine-a-2-NB590]
NanoBRET Fold Response (CCR4; CCR4, tracer 0.1μM): 1.03 | NanoBRET Fold Response (CCR4; CCR4, tracer 1μM): 1.19 | NanoBRET Fold Response (GNRHR; GNRHR, tracer 0.1μM): 1.03 | NanoBRET Fold Response (GNRHR; GNRHR, tracer 1μM): 0.89

CCCn1c(=O)c2[nH]c(-c3ccc(OCC(=O)NCCNC(=O)CCOCCNC(=O)c4ccc(CNC(=O)CCc5ccc6n5[B-](F)(F)[N+]5=C(c7ccc[nH]7)C=CC5=C6)cc4)cc3)nc2n(CCC)c1=O [XAC-3-NB590]
NanoBRET Fold Response (CCR4; CCR4, tracer 0.1μM): 1.36 | NanoBRET Fold Response (CCR4; CCR4, tracer 1μM): 1.29 | NanoBRET Fold Response (GNRHR; GNRHR, tracer 0.1μM): 0.94 | NanoBRET Fold Response (GNRHR; GNRHR, tracer 1μM): 0.98

CN(C)CCC=C1c2ccccc2CCc2ccc(C(=O)NCCNC(=O)CCOCCOCCOCCOCCNC(=O)CCc3ccc4n3[B-](F)(F)[N+]3=C(c5ccc[nH]5)C=CC3=C4)cc21 [Amitriptyline-a-2-NB590]
NanoBRET Fold Response (CCR4; tracer at 0.1μM): 0.92 | NanoBRET Fold Response (CCR4; tracer at 1μM): 1.01 | NanoBRET Fold Response (GNRHR; tracer at 0.1μM): 0.97 | NanoBRET Fold Response (GNRHR; tracer at 1μM): 1.06

COc1ccccc1N1CCN(CCCCN2C(=O)c3ccc(CNC(=O)CCOCCOCCOCCOCCNC(=O)CCc4ccc5n4[B-](F)(F)[N+]4=C(c6ccc[nH]6)C=CC4=C5)cc3C2=O)CC1 [NAN-190-2-NB590]
NanoBRET Fold Response (CCR4; CCR4, tracer 0.1μM): 0.98 | NanoBRET Fold Response (CCR4; CCR4, tracer 1μM): 1.12 | NanoBRET Fold Response (GNRHR; GNRHR, tracer 0.1μM): 0.98 | NanoBRET Fold Response (GNRHR; GNRHR, tracer 1μM): 0.95

O=C(CCc1ccc2n1[B-](F)(F)[N+]1=C(c3ccc[nH]3)C=CC1=C2)NCc1ccc(C(=O)NCCOCCOCCNCC(O)COc2cccc3ccccc23)cc1 (stereo not shown) [Propranolol-3-NB590]
NanoBRET Fold Response (CCR4; CCR4, 0.1μM): 1.11 | NanoBRET Fold Response (CCR4; CCR4, 1μM): 1.03 | NanoBRET Fold Response (GNRHR; GNRHR, 0.1μM): 1.12 | NanoBRET Fold Response (GNRHR; GNRHR, 1μM): 1.03

COc1ccccc1N1CCN(CCCCN2C(=O)c3ccc(CNC(=O)CCOCCNC(=O)c4ccc(CNC(=O)CCc5ccc6n5[B-](F)(F)[N+]5=C(c7ccc[nH]7)C=CC5=C6)cc4)cc3C2=O)CC1 [NAN-190-3-NB590]
NanoBRET Fold Response (CCR4; CCR4, tracer 0.1μM): 0.85 | NanoBRET Fold Response (CCR4; CCR4, tracer 1μM): 1.11 | NanoBRET Fold Response (GNRHR; GNRHR, tracer 0.1μM): 1.14 | NanoBRET Fold Response (GNRHR; GNRHR, tracer 1μM): 0.97

O=C(CCc1ccc2n1[B-](F)(F)[N+]1=C(c3ccc[nH]3)C=CC1=C2)NCc1ccc(C(=O)NCCOCCC(=O)N[C@@H]2CC[C@@]3(O)[C@H]4Cc5ccc(O)c6c5[C@@]3(CCN4CC3CC3)[C@H]2O6)cc1 [Naltrexone-3-NB590]
NanoBRET Fold Response (CCR4; CCR4, tracer 0.1μM): 0.32 | NanoBRET Fold Response (CCR4; CCR4, tracer 1μM): 0.97 | NanoBRET Fold Response (GNRHR; GNRHR, tracer 0.1μM): 0.90 | NanoBRET Fold Response (GNRHR; GNRHR, tracer 1μM): 0.99

CCOC(=O)c1cc(C#N)c(N2CCC(C(=O)NS(=O)(=O)Cc3ccccc3/C=C/C(=O)NCCNC(=O)CCc3ccc4n3[B-](F)(F)[N+]3=C(c5ccc[nH]5)C=CC3=C4)CC2)nc1C [AZD1283-1-NB590]
NanoBRET Fold Response (CCR4; CCR4, 0.1μM): 1.09 | NanoBRET Fold Response (CCR4; CCR4, 1μM): 1.07 | NanoBRET Fold Response (GNRHR; GNRHR, 0.1μM): 1.09 | NanoBRET Fold Response (GNRHR; GNRHR, 1μM): 1.08

COc1ccc2[nH]c(-c3ccc(CNC(=O)CCOCCOCCOCCOCCNC(=O)CCc4ccc5n4[B-](F)(F)[N+]4=C(c6ccc[nH]6)C=CC4=C5)cc3)c(CCNC(C)=O)c2n1 [AzomelatoninICO9-2-NB590]
NanoBRET Fold Response (CCR4; 0.1μM tracer): 1.23 | NanoBRET Fold Response (CCR4; 1μM tracer): 0.96 | NanoBRET Fold Response (GNRHR; 0.1μM tracer): 0.61 | NanoBRET Fold Response (GNRHR; 1μM tracer): 0.98

CC(C)N(CC[C@H](c1ccccc1)c1cc(CCNC(=O)CCOCCOCCOCCOCCNC(=O)CCc2ccc3n2[B-](F)(F)[N+]2=C(c4ccc[nH]4)C=CC2=C3)ccc1O)C(C)C [Tolterodine-2-NB590]
NanoBRET Fold Response (CCR4; CCR4, tracer 0.1μM): 1.29 | NanoBRET Fold Response (CCR4; CCR4, tracer 1μM): 1.16 | NanoBRET Fold Response (GNRHR; GNRHR, tracer 0.1μM): 1.23 | NanoBRET Fold Response (GNRHR; GNRHR, tracer 1μM): 1.15

CN1CCN(C2=Nc3cc(Cl)ccc3N(CC(=O)NCCOCCOCCOCCOCCNC(=O)CCc3ccc4n3[B-](F)(F)[N+]3=C(c5ccc[nH]5)C=CC3=C4)c3ccccc32)CC1 [Clozapine-c-2-NB590]
NanoBRET Fold Response (CCR4; CCR4, 0.1μM tracer): 0.97 | NanoBRET Fold Response (CCR4; CCR4, 1μM tracer): 0.72 | NanoBRET Fold Response (GNRHR; GNRHR, 0.1μM tracer): 1.02 | NanoBRET Fold Response (GNRHR; GNRHR, 1μM tracer): 0.99

N#CN=C(NCCCOc1cccc(CN2CCCCC2)c1)NCCNC(=O)CCOCCOCCOCCOCCNC(=O)CCc1ccc2n1[B-](F)(F)[N+]1=C(c3ccc[nH]3)C=CC1=C2 [Aminopotentidine-2-NB590]
NanoBRET Fold Response (CCR4; CCR4, tracer 0.1μM): 1.09 | NanoBRET Fold Response (CCR4; CCR4, tracer 1μM): 0.96 | NanoBRET Fold Response (GNRHR; GNRHR, tracer 0.1μM): 1.04 | NanoBRET Fold Response (GNRHR; GNRHR, tracer 1μM): 0.98

COc1ccc2c(n1)c(CCNC(C)=O)cn2CCNC(=O)CCc1ccc2n1[B-](F)(F)[N+]1=C(c3ccc[nH]3)C=CC1=C2 [Azamelatonin-1-NB590]
NanoBRET Fold Response (CCR4; 0.1μM tracer): 0.91 | NanoBRET Fold Response (CCR4; 1μM tracer): 0.81 | NanoBRET Fold Response (GNRHR; 0.1μM tracer): 0.96 | NanoBRET Fold Response (GNRHR; 1μM tracer): 1.06

CN(CCC=C1c2ccccc2CCc2ccccc21)C(=O)CCOCCOCCOCCOCCNC(=O)CCc1ccc2n1[B-](F)(F)[N+]1=C(c3ccc[nH]3)C=CC1=C2 [Amitriptyline-e-2-NB590]
NanoBRET Fold Response (CCR4; tracer at 1μM): 0.97

CC(C)N(CC[C@H](c1ccccc1)c1cc(CCNC(=O)c2ccc(CNC(=O)CCc3ccc4n3[B-](F)(F)[N+]3=C(c5ccc[nH]5)C=CC3=C4)cc2)ccc1O)C(C)C [Tolterodine-BZ-NB590]
NanoBRET Fold Response (CCR4; CCR4, tracer 0.1μM): 0.95 | NanoBRET Fold Response (CCR4; CCR4, tracer 1μM): 0.86 | NanoBRET Fold Response (GNRHR; GNRHR, tracer 0.1μM): 1.03 | NanoBRET Fold Response (GNRHR; GNRHR, tracer 1μM): 1.07

O=C(CCc1ccc2n1[B-](F)(F)[N+]1=C(c3ccc[nH]3)C=CC1=C2)NCCOCCOCCNC(=O)OCCOCCN1CCN(C2=Nc3ccccc3Sc3ccccc32)CC1 [Quetiapine-a-2-NB590]
NanoBRET Fold Response (CCR4; CCR4, tracer 0.1μM): 1.02 | NanoBRET Fold Response (CCR4; CCR4, tracer 1μM): 0.94 | NanoBRET Fold Response (GNRHR; GNRHR, tracer 0.1μM): 0.97 | NanoBRET Fold Response (GNRHR; GNRHR, tracer 1μM): 0.81
